Reference: ChEMBL document CHEMBL1127131, “Penems containing amino acid derived substituents at C-2” (1993)
Values after ≈ are worked out from the molar mass of the structure shown.

Columns and labels:
[1] = Gram-positive geometric mean MIC of antibacterial activity; type: functional
Escherichia coli = experiment: Minimum inhibitory concentration required for antibacterial activity against Escherichia coli; type: functional
Providencia = experiment: Minimum inhibitory concentration required for antibacterial activity against Providencia; type: functional
[2] = Gram-negative geometric mean MIC of antibacterial activity; type: functional
Micrococcus luteus = experiment: Minimum inhibitory concentration required for antibacterial activity against Sarcina luteus; type: functional, sarcinea luteus
Enterobacter = experiment: Minimum inhibitory concentration required for antibacterial activity against Enterobacter; type: functional
Bacillus subtilis = experiment: Minimum inhibitory concentration required for antibacterial activity against Bacillus subtilis; type: functional
Salmonella = experiment: Minimum inhibitory concentration required for antibacterial activity against Salmonella; type: functional
Staphylococcus = experiment: Minimum inhibitory concentration required for antibacterial activity against Staphylococcus; type: functional
Klebsiella = experiment: Minimum inhibitory concentration required for antibacterial activity against Klebsiella; type: functional
Serratia [3] = experiment: Minimum inhibitory concentration required for antibacterial activity against Serratia; type: functional
Enterococcus faecalis = experiment: Minimum inhibitory required for antibacterial activity against Streptococcus faecalis; type: functional
Serratia [4] = experiment: Minimum inhibitory concentration for antibacterial activity against Serratia; type: functional
[5] = Gram-positive geometric mean MIC for antibacterial activity (ug/mL); type: functional
Morganella = experiment: Minimum inhibitory concentration required for antibacterial activity against Morganella; type: functional
[6] = Gram-positive vitro for its antibacterial activity of Geometric Mean MIC (ug/mL); type: functional

MIC [1] [µg/mL] | MIC (Escherichia coli) [µg/mL] | MIC (Providencia) [µg/mL] | MIC [2] [µg/mL] | MIC (Micrococcus luteus) [µg/mL] | MIC (Enterobacter) [µg/mL] | MIC (Bacillus subtilis) [µg/mL] | MIC (Salmonella) [µg/mL] | MIC (Staphylococcus) [µg/mL] | MIC (Klebsiella) [µg/mL] | MIC (Serratia [3]) [µg/mL] | MIC (Enterococcus faecalis) [µg/mL] | MIC (Serratia [4]) [µg/mL] | MIC [5] [µg/mL] | MIC (Morganella) [µg/mL] | MIC [6] [µg/mL] | SMILES
3.01 | 0.25 (≈ 0.748 µM) | 5.66 (≈ 16.9 µM) | 0.49 | 4 (≈ 12 µM) | 0.76 (≈ 2.27 µM) | 0.5 (≈ 1.5 µM) | 0.16 (≈ 0.479 µM) | 1.82 (≈ 5.44 µM) | 0.17 (≈ 0.508 µM) | 1.08 (≈ 3.23 µM) | 45.2 (≈ 135 µM) | – | – | – | – | C[C@@H](O)[C@H]1C(=O)N2C(C(=O)O)=C(SC[C@@H](N)C(=O)O)S[C@H]12
– | 4 (≈ 11.5 µM) | 13.9 (≈ 40 µM) | 6.4 | 0.5 (≈ 1.44 µM) | 10.1 (≈ 28.9 µM) | 0.5 (≈ 1.44 µM) | 3.18 (≈ 9.13 µM) | 0.707 (≈ 2.03 µM) | 4.93 (≈ 14.2 µM) | – | 22.6 (≈ 65 µM) | 19 (≈ 54.6 µM) | 0.94 (≈ 2.7 µM) | 8 (≈ 23 µM) | – | C[C@@H](O)[C@H]1C(=O)N2C(C(=O)O)=C(CSC[C@H](N)C(=O)O)S[C@H]12
– | 11.7 (≈ 36.7 µM) | 55.7 (≈ 175 µM) | 17.6 | 0.031 (≈ 0.0974 µM) | 20.2 (≈ 63.3 µM) | 4 (≈ 12.6 µM) | 10.1 (≈ 31.7 µM) | 0.214 (≈ 0.672 µM) | 12.1 (≈ 38.1 µM) | 38.1 (≈ 120 µM) | 64 (≈ 201 µM) | – | 0.37 (≈ 1.16 µM) | 64.1 (≈ 201 µM) | – | CSCC[C@H](N)C1=C(C(=O)O)N2C(=O)[C@H]([C@@H](C)O)[C@H]2S1
– | 21.9 (≈ 84.9 µM) | 64 (≈ 248 µM) | 24.6 | 0.5 (≈ 1.94 µM) | 20.2 (≈ 78 µM) | 1 (≈ 3.87 µM) | 10.1 (≈ 39 µM) | 0.26 (≈ 1.01 µM) | 17.1 (≈ 66.4 µM) | 45.3 (≈ 175 µM) | 64 (≈ 248 µM) | – | 0.47 (≈ 1.82 µM) | 64 (≈ 248 µM) | – | C[C@H](N)C1=C(C(=O)O)N2C(=O)[C@H]([C@@H](C)O)[C@H]2S1
– | 0.707 (≈ 2.32 µM) | 9.19 (≈ 30.2 µM) | 1.33 | 2 (≈ 6.57 µM) | 2 (≈ 6.57 µM) | 0.125 (≈ 0.411 µM) | 0.794 (≈ 2.61 µM) | 0.099 (≈ 0.325 µM) | 0.595 (≈ 1.95 µM) | 2.83 (≈ 9.3 µM) | 16 (≈ 52.6 µM) | – | 0.18 (≈ 0.591 µM) | 2 (≈ 6.57 µM) | – | CSC[C@@H](N)C1=C(C(=O)O)N2C(=O)[C@H]([C@@H](C)O)[C@H]2S1
– | 2.42 (≈ 7.65 µM) | 18.4 (≈ 58.1 µM) | 4 | 4 (≈ 12.6 µM) | 2.52 (≈ 7.97 µM) | 1.01 (≈ 3.19 µM) | 1 (≈ 3.16 µM) | 2.08 (≈ 6.58 µM) | 2.83 (≈ 8.95 µM) | 16 (≈ 50.6 µM) | 45.3 (≈ 143 µM) | – | 2.7 (≈ 8.54 µM) | 16 (≈ 50.6 µM) | – | C[C@@H](O)[C@H]1C(=O)N2C(C(=O)O)=C(CC[C@@H](N)C(=O)O)S[C@H]12
– | 0.441 (≈ 1.38 µM) | 5.28 (≈ 16.6 µM) | 0.13 | 0.125 (≈ 0.393 µM) | 1 (≈ 3.14 µM) | 0.125 (≈ 0.393 µM) | 0.397 (≈ 1.25 µM) | 0.07 (≈ 0.22 µM) | 0.5 (≈ 1.57 µM) | 2.83 (≈ 8.89 µM) | 8.02 (≈ 25.2 µM) | – | 0.88 (≈ 2.76 µM) | 4 (≈ 12.6 µM) | – | CSCC[C@@H](N)C1=C(C(=O)O)N2C(=O)[C@H]([C@@H](C)O)[C@H]2S1
– | 5.15 (≈ 21.1 µM) | 8 (≈ 32.8 µM) | 6.27 | 0.5 (≈ 2.05 µM) | 8 (≈ 32.8 µM) | 0.5 (≈ 2.05 µM) | 3.18 (≈ 13 µM) | 0.153 (≈ 0.626 µM) | 6.06 (≈ 24.8 µM) | – | 32 (≈ 131 µM) | 13.4 (≈ 55.1 µM) | 0.28 (≈ 1.15 µM) | 4 (≈ 16.4 µM) | – | C[C@@H](O)[C@H]1C(=O)N2C(C(=O)O)=C(CN)S[C@H]12
– | 12.4 (≈ 40.9 µM) | 97 (≈ 319 µM) | 16.3 | 0.25 (≈ 0.821 µM) | 20.2 (≈ 66.2 µM) | 0.5 (≈ 1.64 µM) | 5.04 (≈ 16.6 µM) | 0.26 (≈ 0.854 µM) | 8.57 (≈ 28.2 µM) | 22.6 (≈ 74.3 µM) | 90.5 (≈ 297 µM) | – | – | 128 (≈ 421 µM) | 0.45 (≈ 1.48 µM) | CSC[C@H](N)C1=C(C(=O)O)N2C(=O)[C@H]([C@@H](C)O)[C@H]2S1
– | 0.284 (≈ 0.815 µM) | 2 (≈ 5.74 µM) | 0.51 | 0.5 (≈ 1.44 µM) | 0.63 (≈ 1.81 µM) | 0.25 (≈ 0.718 µM) | 0.25 (≈ 0.718 µM) | 0.852 (≈ 2.45 µM) | 0.308 (≈ 0.884 µM) | – | 16 (≈ 45.9 µM) | 1.68 (≈ 4.82 µM) | 1.1 (≈ 3.16 µM) | 2 (≈ 5.74 µM) | – | C[C@@H](O)[C@H]1C(=O)N2C(C(=O)O)=C(CSC[C@@H](N)C(=O)O)S[C@H]12
– | 9.67 (≈ 30.6 µM) | 55.7 (≈ 176 µM) | 17.3 | 8 (≈ 25.3 µM) | 16 (≈ 50.6 µM) | 2 (≈ 6.32 µM) | 11.3 (≈ 35.8 µM) | 2.33 (≈ 7.37 µM) | 12.1 (≈ 38.3 µM) | 45.3 (≈ 143 µM) | 90.5 (≈ 286 µM) | – | 3.4 (≈ 10.7 µM) | 64 (≈ 202 µM) | – | C[C@@H](O)[C@H]1C(=O)N2C(C(=O)O)=C(CC[C@H](N)C(=O)O)S[C@H]12
– | 6.46 (≈ 19.3 µM) | 42.7 (≈ 128 µM) | 16 | 4 (≈ 12 µM) | 16 (≈ 47.9 µM) | 2.83 (≈ 8.46 µM) | 5.28 (≈ 15.8 µM) | 1.94 (≈ 5.8 µM) | 4 (≈ 12 µM) | 17.3 (≈ 51.7 µM) | 128 (≈ 383 µM) | – | 4 (≈ 12 µM) | – | – | C[C@@H](O)[C@H]1C(=O)N2C(C(=O)O)=C(SC[C@H](N)C(=O)O)S[C@H]12
– | 3.11 (≈ 9.83 µM) | 16 (≈ 50.6 µM) | 5.4 | 2 (≈ 6.32 µM) | 6.35 (≈ 20.1 µM) | 0.25 (≈ 0.79 µM) | 4 (≈ 12.6 µM) | 0.735 (≈ 2.32 µM) | 3.73 (≈ 11.8 µM) | 13.4 (≈ 42.5 µM) | 16 (≈ 50.6 µM) | – | 1 (≈ 3.16 µM) | 16 (≈ 50.6 µM) | – | C[C@@H](O)[C@H]1C(=O)N2C(C(=O)O)=C([C@H](N)CCC(=O)O)S[C@H]12
– | 11.7 (≈ 45.2 µM) | 55.7 (≈ 216 µM) | 14.3 | – | 10.1 (≈ 39 µM) | – | 5.04 (≈ 19.5 µM) | 0.229 (≈ 0.887 µM) | 9.85 (≈ 38.1 µM) | 26.9 (≈ 104 µM) | – | – | 0.29 (≈ 1.12 µM) | 32 (≈ 124 µM) | – | C[C@@H](N)C1=C(C(=O)O)N2C(=O)[C@H]([C@@H](C)O)[C@H]2S1
– | 0.68 (≈ 2.36 µM) | 2.3 (≈ 7.98 µM) | 1.2 | – | 3.2 (≈ 11.1 µM) | 0.06 (≈ 0.208 µM) | 0.5 (≈ 1.73 µM) | 0.12 (≈ 0.416 µM) | 0.81 (≈ 2.81 µM) | – | 5.7 (≈ 19.8 µM) | 5.7 (≈ 19.8 µM) | 0.16 (≈ 0.555 µM) | 2 (≈ 6.94 µM) | – | C[C@@H](O)[C@H]1C(=O)N2C(C(=O)O)=C(COC(N)=O)S[C@H]12 [RITIPENEM]
– | 0.3 (≈ 0.897 µM) | 0.87 (≈ 2.6 µM) | 0.57 | – | 1.3 (≈ 3.89 µM) | 0.06 (≈ 0.179 µM) | 0.25 (≈ 0.748 µM) | 0.11 (≈ 0.329 µM) | 0.35 (≈ 1.05 µM) | – | 5.7 (≈ 17 µM) | 4.8 (≈ 14.4 µM) | 0.15 (≈ 0.449 µM) | 2 (≈ 5.98 µM) | – | C[C@@H](O)[C@H]1C(=O)N2C(C(=O)O)=C(SCCOC(N)=O)S[C@H]12 [Sch-34343]
